This is an account of results in patent US20240108745A1, “BIOACTIVE SUBSTANCE CONJUGATE, PREPARATION METHOD THEREFOR AND USE THEREOF” (MEDILINK THERAPEUTICS (SUZHOU) CO., LTD., priority 2021, published 2024).

Data set [1] relates to HCC1806 cells. Briefly: Assay I of bioactive molecules on cell viability in vitro (CCK8). It is filed as cell-based. Particulars: Homo sapiens, HCC1806, 72 h; 7500 cells/well, 3 days; read-out: EC50(nM), killing of HCC1806 cells. On the procedure:
(§1) Tumor cells were first cultured; the bioactive molecules of the present disclosure were co-cultured with tumor cells, and then CCK8 reagent (Dojindo Laboratories (Shanghai), Cat: CK04, Lot: JJ744) was added, and the activity of dehydrogenase in mitochondria was detected by reading (detection wavelength 450 nm) on a microplate reader (manufacturer: Molecular Devices, model: SpectraMax M2), to evaluate the inhibitory effect of bioactive molecules on cell proliferation.
(§2) In vitro cell viability assay method: bioactive molecules (12 concentration gradients) were diluted with corresponding assay medium (containing 2% FBS). The tumor cells were digested by conventional methods using trypsin, and cells in tube were collected and counted, then resuspended in the corresponding assay media (containing 2% FBS). The diluted bioactive molecules were added to a 96-well plate, followed by the cells. Then, 20 μL of CCK8 reagent was added to each well, and the reaction was carried out for 4 h, then the plate was read on a microplate reader (detection wavelength was 450 nm). The experimental results are shown in Tables 6.1, 6.2, 6.3, 6.4, and 6.5.

The test system of data set [2] is LS174T cells. Described as above. It is filed as cell-based. Particulars: Homo sapiens, read-out: EC50(nM), killing of LS174T cells. The method, then:
as §1, §2

Data set [3] has as its system NCl-H322M cells. Described as above. Particulars: Homo sapiens, read-out: EC50(nM), killing of NCl-H322M cells. It is filed as cell-based. The method, then:
as §1, §2

For data set [4], the system named is PANC-1 cells. The data set is described as above. It counts as cell-based. Particulars: Homo sapiens, read-out: EC50(nM), killing of PANC-1 cells. On the procedure:
as §1, §2

For data set [5] the following is noted: human plasma 37° C., ADC 200 μg/mL, A1.9 released from B7H3-ADC-07(DAR8), DXD from B7H3-C1-ADC-21(DAR4). On the procedure: The appropriate concentration of internal standard stock solution was prepared with DMSO, and then acetonitrile or other reagents were used to prepare the appropriate concentration of the internal standard-containing precipitant.
Incubation of sample: the bacteriostatic agent ProClin was added to the plasma of each genera (human, cynomolgus monkey, ICR mouse) and PBS containing 1% BSA, and the final concentration of ProClin was 0.1%, Sterile operations were adopted. 40 μL working solution of test substance and 360 μL of human plasma were mixed to prepare 200 μg/mL of incubation sample. The plate was sealed with a film, and then incubated at 37° C. under 5% CO2 in an incubator, with a shaking speed of 80 times/mm. At 0 h, 4 h, 24 h, 2 d, 3 d, 7 d, 10 d, 14 d, 17 d, 21 d and 28 d, 20 μL of plasma sample was transferred, to which was added 200 μL of precipitant (containing internal standard), and completely mixed to precipitate the proteins.
All samples were subject to protein precipitating, and then centrifuged to collect the supernatant, which was diluted with water, and analyzed by LC-MS/MS.

The subject of data set [6] is HT29 cells. Briefly: Assay III of bioactive molecules on cell viability in vitro (CCK8). Particulars: Homo sapiens, HT-29; CCK8, 3-4 days (Assay III); read-out: EC50(nM), killing of HT29 cells. It is filed as cell-based. The method, then: Tumor cells HT29 (having a same source as the above) were first cultured. The bioactive molecules or fragments of the present disclosure were co-cultured with tumor cells, and then CCK8 reagent (Dojindo Laboratories (Shanghai), Cat: CK04, Lot: JJ744) was added, and the activity of dehydrogenase in mitochondria was detected by reading (detection wavelength 450 nm) on a microplate reader (manufacturer: Molecular Devices, model: SpectraMax M2), to evaluate the inhibitory effect of bioactive molecules on cell proliferation.
(§3) In vitro cell viability assay method: the tumor cells were digested by conventional methods using trypsin, and cells in tube were collected and counted, and then resuspended in the corresponding assay media (containing 2% FBS), which was added to a 96-well plate at 5000-10000 cells/well. Bioactive molecules were diluted with DMSO, and then added to a 96-well plate at 100 μL, the initial concentration was 10M, followed by 3-fold serial dilution (12 concentration gradients). The plate was incubated for 3-4 days at 37° C. under 5% CO2. Then, 20 μL of CCK8 reagent was added to each well, and the reaction was carried out for 2-6 h. The plate was read on a microplate reader (detection wavelength was 450 nm).

The test system of data set [7] is A549. Description: Assay II of bioactive molecules on cell viability in vitro (CCK8). It counts as cell-based. The note with it: Homo sapiens, CCK8, 3-4 days. On the procedure:
(§4) Tumor cells NUCG-4, PC-9, HT29, NCI-H358, KYSE520, A431 and A549 were first cultured; the bioactive molecules or fragments of the present disclosure were co-cultured with tumor cells, and then CCK8 reagent (Dojindo Laboratories (Shanghai), Cat: CK04, Lot: JJ744) was added, and the activity of dehydrogenase in mitochondria was detected by reading (detection wavelength 450 nm) on a microplate reader (manufacturer: Molecular Devices, model: SpectraMax M2), to evaluate the inhibitory effect of bioactive molecules on cell proliferation.
as §3, with “and then 100 μL was added to” for “and then added to”, “a 96-well plate, the initial” for “a 96-well plate at 100 μL, the initial”, “concentration was 10 μM, followed by” for “concentration was 10M, followed by”

In data set [8] the test system is PC-9. The data set is described as above. Particulars: Homo sapiens, CCK8, 3-4 days. It counts as cell-based. On the procedure:
as §4
as §3, with “and then 100 μL was added to” for “and then added to”, “a 96-well plate, the initial” for “a 96-well plate at 100 μL, the initial”, “concentration was 10 μM, followed by” for “concentration was 10M, followed by”

Data set [9] concerns A431. The description is as above. It counts as cell-based. Particulars: Homo sapiens, A-431; CCK8, 3-4 days. The method, then:
as §4
as §3, with “and then 100 μL was added to” for “and then added to”, “a 96-well plate, the initial” for “a 96-well plate at 100 μL, the initial”, “concentration was 10 μM, followed by” for “concentration was 10M, followed by”

The test system of data set [10] is NUCG-4. The description is as above. It counts as cell-based. Particulars: CCK8, 3-4 days. The method, then:
as §4
as §3, with “and then 100 μL was added to” for “and then added to”, “a 96-well plate, the initial” for “a 96-well plate at 100 μL, the initial”, “concentration was 10 μM, followed by” for “concentration was 10M, followed by”

Data set [11] has as its system HT29. The data set is described as above. It counts as cell-based. The note with it: Homo sapiens, HT-29; CCK8, 3-4 days. The method, then:
as §4
as §3, with “and then 100 μL was added to” for “and then added to”, “a 96-well plate, the initial” for “a 96-well plate at 100 μL, the initial”, “concentration was 10 μM, followed by” for “concentration was 10M, followed by”

Data set [12] deals with NCI-H358. Described as above. Particulars: Homo sapiens, CCK8, 3-4 days. It is filed as cell-based. The method, then:
as §4
as §3, with “and then 100 μL was added to” for “and then added to”, “a 96-well plate, the initial” for “a 96-well plate at 100 μL, the initial”, “concentration was 10 μM, followed by” for “concentration was 10M, followed by”

For data set [13] the following is noted: cited from earlier work.

Like-named read-outs stand apart in the source and are kept apart here.

As to `CC[C@@]1(O)C(=O)OCc2c1cc1n(c2=O)Cc2c-1nc1cc(F)c(C)c3c1c2[C@@H](NC(=O)CO)CC3` [DXD, DXd, reference compound], the EC50 came out at 37 nM in [1]; 82 nM in [2]; 76.9 nM in data set [3]; 966 nM in data set [4]; 22.9 nM in [6]; 262 nM in data set [7]. Also, the EC50 in data set [8] amounted to 16.7 nM; in data set [9], 25.1 nM; in data set [10], 43.3 nM; in data set [11], 210 nM; in data set [12], 262 nM. The “Release ratio (%)” value in data set [5] (day 0) is 0.348%; in data set [5] (day 0.17), 1.786%; in data set [5] (day 1), 2.765%; in data set [5] (day 2) it was 3.603%; in data set [5] (day 3), 3.763%; in data set [5] (day 7), 4.116%. In addition, the “Release ratio (%)” value in [5] (day 10) stood at 5.126%; in data set [5] (day 14), 5.786%; in [5] (day 17), 6.446%; in [5] (day 21), 7.494%; in data set [5] (day 28), 12.659%.

Take Trodelvy: the plasma half-life result in data set [13] is given as “less than 24 hours”.
